Test results as given in the Kinase Knowledgebase extract (Sharma et al. 2016).
pIC50, pKd, pKi: −log10 of the molar value. “And” between values parts separate entries of the source, which are not always exact repeats. Equal values may be shown once. Each block holds one compound with its values, some of them ahead of it.

How the values were obtained:
PIK3CA (human) [1] = molecular target: PIK3CA (human) (UniProt P42336); experiment: Enzyme Assay
PIK3CD (Human) [2] = molecular target: PIK3CD (Human) (UniProt O00329); experiment: Enzyme Assay
PIK3CD (Human) [3] = molecular target: PIK3CD (Human) (UniProt O00329); experiment: Assessment of PIK3CD Kinase Activity
PIK3CG (human) = PIK3CG (human) (UniProt P48736); experiment: Assessment of PIK3CG Kinase Activity
ROCK2 (human) = ROCK2 (human) (UniProt O75116); experiment: Enzyme Assay; details: for activity: concentration not given here
PIK3CA (human) [4] = molecular target: PIK3CA (human) (UniProt P42336); experiment: Assessment of PIK3CA Kinase Activity
PIK3CD (Human) [5] = molecular target: PIK3CD (Human) (UniProt O00329); experiment: Inhibition of PIK3CD Kinase Activity
MAPK14 (human) = MAPK14 (human) (UniProt Q16539); experiment: Enzyme Assay; details: concentration not given here
Sequence of MAPK14 (human) (Q16539 whole entry, looked up): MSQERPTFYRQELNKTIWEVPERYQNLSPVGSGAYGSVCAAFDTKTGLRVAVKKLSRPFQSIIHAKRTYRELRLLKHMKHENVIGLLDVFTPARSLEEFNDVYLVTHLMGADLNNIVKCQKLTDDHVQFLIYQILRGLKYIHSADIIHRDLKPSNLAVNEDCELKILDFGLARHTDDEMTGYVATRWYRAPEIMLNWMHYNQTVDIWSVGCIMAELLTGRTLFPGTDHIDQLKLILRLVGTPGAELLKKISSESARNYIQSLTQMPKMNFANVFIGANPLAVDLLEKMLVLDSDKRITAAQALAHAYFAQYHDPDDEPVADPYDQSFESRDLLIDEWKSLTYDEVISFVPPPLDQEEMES

Sequence of PIK3CA (human) (P42336 whole entry, looked up): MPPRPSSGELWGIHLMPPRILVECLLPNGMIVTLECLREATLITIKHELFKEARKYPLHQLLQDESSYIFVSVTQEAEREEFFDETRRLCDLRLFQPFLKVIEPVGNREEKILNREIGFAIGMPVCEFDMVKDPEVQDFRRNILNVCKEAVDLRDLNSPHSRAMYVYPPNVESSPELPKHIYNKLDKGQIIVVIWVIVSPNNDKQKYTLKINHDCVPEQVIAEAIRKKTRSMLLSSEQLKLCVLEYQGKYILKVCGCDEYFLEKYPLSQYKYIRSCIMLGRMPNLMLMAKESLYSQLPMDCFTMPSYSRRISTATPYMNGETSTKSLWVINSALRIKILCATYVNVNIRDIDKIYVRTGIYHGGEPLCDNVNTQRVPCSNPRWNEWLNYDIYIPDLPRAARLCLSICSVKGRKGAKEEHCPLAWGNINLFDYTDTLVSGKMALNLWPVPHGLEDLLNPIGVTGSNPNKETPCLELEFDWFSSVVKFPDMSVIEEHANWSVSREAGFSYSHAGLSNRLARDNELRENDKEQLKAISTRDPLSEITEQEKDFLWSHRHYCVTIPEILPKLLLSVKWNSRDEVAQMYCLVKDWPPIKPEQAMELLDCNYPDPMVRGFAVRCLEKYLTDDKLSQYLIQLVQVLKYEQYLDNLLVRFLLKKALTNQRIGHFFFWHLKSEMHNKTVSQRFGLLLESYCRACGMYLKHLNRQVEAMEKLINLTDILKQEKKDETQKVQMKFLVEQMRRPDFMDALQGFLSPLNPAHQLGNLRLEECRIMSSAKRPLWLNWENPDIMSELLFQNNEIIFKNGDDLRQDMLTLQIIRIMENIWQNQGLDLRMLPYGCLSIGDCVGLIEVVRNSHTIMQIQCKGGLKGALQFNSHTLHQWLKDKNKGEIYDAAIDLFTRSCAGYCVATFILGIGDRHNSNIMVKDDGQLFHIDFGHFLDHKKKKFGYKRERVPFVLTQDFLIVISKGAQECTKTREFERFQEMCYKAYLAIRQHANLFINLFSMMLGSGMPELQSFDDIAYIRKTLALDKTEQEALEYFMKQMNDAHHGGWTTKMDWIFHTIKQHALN
Sequence of ROCK2 (human) (O75116 whole entry, looked up): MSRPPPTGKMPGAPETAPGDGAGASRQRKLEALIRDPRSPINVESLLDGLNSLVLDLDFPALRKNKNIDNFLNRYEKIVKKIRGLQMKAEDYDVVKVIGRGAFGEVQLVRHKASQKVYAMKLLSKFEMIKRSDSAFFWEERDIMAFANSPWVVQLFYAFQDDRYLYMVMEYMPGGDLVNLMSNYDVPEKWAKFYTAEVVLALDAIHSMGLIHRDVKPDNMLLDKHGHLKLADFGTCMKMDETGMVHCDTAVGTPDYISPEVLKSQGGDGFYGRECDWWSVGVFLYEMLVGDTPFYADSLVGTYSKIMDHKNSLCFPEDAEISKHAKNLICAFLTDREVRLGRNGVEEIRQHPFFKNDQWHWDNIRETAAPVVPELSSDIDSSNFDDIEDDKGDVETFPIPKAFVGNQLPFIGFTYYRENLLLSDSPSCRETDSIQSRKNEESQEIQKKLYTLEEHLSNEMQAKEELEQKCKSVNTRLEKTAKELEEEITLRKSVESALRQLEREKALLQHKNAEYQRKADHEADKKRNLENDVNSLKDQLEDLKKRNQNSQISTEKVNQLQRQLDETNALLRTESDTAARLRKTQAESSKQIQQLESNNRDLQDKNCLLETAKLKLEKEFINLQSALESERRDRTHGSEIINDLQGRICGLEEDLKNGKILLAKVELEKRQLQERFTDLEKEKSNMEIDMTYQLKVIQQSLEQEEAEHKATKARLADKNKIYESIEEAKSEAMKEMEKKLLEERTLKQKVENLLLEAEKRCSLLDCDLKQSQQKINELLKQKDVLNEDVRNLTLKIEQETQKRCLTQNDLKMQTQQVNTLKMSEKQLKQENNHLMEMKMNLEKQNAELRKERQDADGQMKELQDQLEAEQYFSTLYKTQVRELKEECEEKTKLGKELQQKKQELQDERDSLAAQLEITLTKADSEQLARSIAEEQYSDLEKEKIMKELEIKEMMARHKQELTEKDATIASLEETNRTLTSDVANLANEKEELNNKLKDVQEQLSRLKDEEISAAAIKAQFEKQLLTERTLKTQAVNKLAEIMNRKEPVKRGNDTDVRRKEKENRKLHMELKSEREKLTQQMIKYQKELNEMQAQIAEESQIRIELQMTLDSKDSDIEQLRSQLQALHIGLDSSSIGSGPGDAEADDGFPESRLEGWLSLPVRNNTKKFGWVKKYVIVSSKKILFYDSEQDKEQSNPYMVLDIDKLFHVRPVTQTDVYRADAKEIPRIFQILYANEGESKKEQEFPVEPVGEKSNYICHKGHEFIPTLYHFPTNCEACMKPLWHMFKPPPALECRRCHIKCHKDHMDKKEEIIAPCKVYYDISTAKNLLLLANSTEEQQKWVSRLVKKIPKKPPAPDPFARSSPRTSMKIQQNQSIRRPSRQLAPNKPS
Sequence of PIK3CD (Human) (O00329 whole entry, looked up): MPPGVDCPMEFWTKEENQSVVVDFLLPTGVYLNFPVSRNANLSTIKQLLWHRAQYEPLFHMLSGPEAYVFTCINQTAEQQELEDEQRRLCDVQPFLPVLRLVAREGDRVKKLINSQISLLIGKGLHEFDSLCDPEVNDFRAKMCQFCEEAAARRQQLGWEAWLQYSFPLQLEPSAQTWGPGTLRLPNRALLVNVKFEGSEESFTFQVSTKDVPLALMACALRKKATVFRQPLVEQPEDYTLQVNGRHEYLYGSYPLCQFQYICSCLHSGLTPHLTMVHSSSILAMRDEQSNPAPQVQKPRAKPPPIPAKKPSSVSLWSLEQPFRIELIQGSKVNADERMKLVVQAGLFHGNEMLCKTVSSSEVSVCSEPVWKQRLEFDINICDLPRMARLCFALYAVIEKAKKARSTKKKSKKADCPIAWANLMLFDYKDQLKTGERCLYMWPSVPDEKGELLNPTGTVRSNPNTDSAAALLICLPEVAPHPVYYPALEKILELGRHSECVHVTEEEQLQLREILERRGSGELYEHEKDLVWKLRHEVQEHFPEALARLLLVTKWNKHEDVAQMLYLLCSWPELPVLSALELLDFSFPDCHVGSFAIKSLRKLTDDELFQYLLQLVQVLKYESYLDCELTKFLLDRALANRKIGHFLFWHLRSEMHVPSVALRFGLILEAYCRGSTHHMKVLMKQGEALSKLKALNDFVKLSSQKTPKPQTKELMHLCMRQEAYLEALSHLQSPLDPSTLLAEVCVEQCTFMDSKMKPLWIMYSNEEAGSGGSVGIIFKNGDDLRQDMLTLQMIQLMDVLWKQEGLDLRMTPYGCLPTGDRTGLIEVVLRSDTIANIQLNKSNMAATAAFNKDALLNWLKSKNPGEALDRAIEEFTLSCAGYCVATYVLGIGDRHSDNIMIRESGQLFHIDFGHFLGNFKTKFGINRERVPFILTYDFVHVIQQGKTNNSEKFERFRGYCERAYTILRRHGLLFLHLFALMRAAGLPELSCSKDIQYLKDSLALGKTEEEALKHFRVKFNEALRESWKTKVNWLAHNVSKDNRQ
Sequence of PIK3CG (human) (P48736 whole entry, looked up): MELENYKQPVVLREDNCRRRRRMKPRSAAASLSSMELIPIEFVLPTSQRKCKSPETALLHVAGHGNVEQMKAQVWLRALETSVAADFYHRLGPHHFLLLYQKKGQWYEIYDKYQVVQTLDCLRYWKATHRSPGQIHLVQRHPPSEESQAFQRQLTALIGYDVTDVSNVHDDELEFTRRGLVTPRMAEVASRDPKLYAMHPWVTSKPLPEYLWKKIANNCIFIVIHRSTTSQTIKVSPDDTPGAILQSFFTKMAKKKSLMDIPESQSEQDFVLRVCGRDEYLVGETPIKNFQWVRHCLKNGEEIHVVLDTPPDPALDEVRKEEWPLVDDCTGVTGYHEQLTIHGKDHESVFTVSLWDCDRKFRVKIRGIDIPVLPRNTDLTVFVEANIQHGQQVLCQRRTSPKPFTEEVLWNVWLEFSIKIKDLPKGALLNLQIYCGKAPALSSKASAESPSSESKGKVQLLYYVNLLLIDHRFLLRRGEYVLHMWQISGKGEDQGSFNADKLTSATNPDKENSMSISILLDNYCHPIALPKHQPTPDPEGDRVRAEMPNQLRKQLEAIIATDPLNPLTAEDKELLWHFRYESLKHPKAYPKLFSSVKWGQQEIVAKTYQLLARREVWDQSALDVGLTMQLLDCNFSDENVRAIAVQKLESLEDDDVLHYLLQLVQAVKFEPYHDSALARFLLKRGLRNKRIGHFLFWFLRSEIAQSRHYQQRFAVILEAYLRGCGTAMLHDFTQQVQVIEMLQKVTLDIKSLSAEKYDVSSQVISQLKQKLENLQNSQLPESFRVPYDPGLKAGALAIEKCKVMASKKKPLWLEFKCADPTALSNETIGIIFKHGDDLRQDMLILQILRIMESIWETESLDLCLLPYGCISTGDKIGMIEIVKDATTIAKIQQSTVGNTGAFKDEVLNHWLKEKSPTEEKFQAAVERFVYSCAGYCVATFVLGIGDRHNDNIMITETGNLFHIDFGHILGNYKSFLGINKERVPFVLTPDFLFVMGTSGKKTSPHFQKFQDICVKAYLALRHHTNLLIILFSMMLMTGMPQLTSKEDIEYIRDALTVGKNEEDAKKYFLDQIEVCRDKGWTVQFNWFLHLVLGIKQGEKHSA

pIC50 (PIK3CA (human) [1]): 6.97
pIC50 (PIK3CD (Human) [2]): 8.15
SMILES: COc1ncc(N2CCc3ncnc(N[C@H]4CCN(C(=O)[C@H]5CC[C@H](O)CC5)C4)c3C2)cc1C(F)(F)F

pKi (PIK3CD (Human) [3]): 8.56 and 8.88
SMILES: C[C@H](Nc1ncnc(N)c1C#N)c1nc2ccc(F)cc2c(C#N)c1-c1ccccc1

pIC50 (PIK3CG (human)): 7.82
SMILES: Cc1nc(Nc2cc(C(=O)O)n(CCc3ccccc3)c2)nc2c1cc(F)c(=O)n2C1CCCC1

pKi (PIK3CD (Human) [2]): 8.33
SMILES: Cc1c(-n2ccccc2=O)nc2cc(F)cc(F)c2c1N1CC2(CCOCC2)c2ncc(N3CCOCC3)cc21

pIC50 (ROCK2 (human)): > 7.00
SMILES: C.COC(=O)c1ccc(C(=O)Nc2cccc(CNC3CCC(Nc4cccc5cnccc45)CC3)c2)cc1 (configuration not stated)

pIC50 (PIK3CA (human) [4]): 5.62
pIC50 (PIK3CG (human)): 5.79
SMILES: O=c1n(Cc2ccccc2)c2nc(-c3cccc(O)c3)nc(C3=CCOCC3)c2n1Cc1ccccc1

pIC50 (PIK3CD (Human) [5]): 5.99
pIC50 (PIK3CD (Human) [2]): 6.57
SMILES: O=c1cc(N2CCOCC2)oc2c(-c3ccccc3)cccc12

pIC50 (PIK3CD (Human) [3]): 6.90
pIC50 (PIK3CG (human)): 8.10
SMILES: Nc1nc2ccc(-c3cncc(NS(=O)(=O)c4cccc5ccccc45)c3)cn2n1

pIC50 (PIK3CG (human)): 5.55
SMILES: CCOc1ccc2sc(C(=O)Nc3nnn[nH]3)c(SCCc3ccccc3)c2c1

pIC50 (PIK3CA (human) [4]): 7.22
pIC50 (PIK3CG (human)): 6.28
SMILES: O=C(Nc1ccc(-c2nc(N3CCOCC3)nc(N3CCOCC3)n2)cc1)Nc1ccc(F)cc1F

pIC50 (PIK3CA (human) [1]): 8.02
pIC50 (PIK3CD (Human) [2]): 7.74
SMILES: CS(=O)(=O)N1CCN(Cc2csc3c(-c4cnc(N)nc4)nc(N4CCOCC4)nc23)CC1

pIC50 (PIK3CD (Human) [5]): 8.10
SMILES: C[C@H](Nc1ncnc2[nH]cnc12)c1cc2cccc(Cl)c2nc1-c1cc(F)ccc1Cl

pIC50 (PIK3CD (Human) [2]): > 6.60
SMILES: Cc1n[nH]c2cc(-c3nn(Cc4oc5ccccc5c(=O)c4-c4cccc(F)c4)c4ncnc(N)c34)ccc12

pIC50 (PIK3CG (human)): 5.74
SMILES: CC(=O)Nc1nc(C)c(-c2ccc(S(C)(=O)=O)cn2)s1

pIC50 (PIK3CA (human) [4]): 8.70
pIC50 (PIK3CG (human)): 7.64
SMILES: O=C(Nc1ccc(-c2nc(N3CCOCC3)nc(N3CCOCC3)n2)cc1)Nc1cccs1

SMILES: CN[C@@H]1C[C@H]2O[C@@](C)([C@@H]1OC)n1c3ccccc3c3c4c(c5c6ccccc6n2c5c31)C(=O)N[C@@H]4O
activity (ROCK2 (human)): 22%
activity (MAPK14 (human)): 92%

pIC50 (ROCK2 (human)): 9.00
SMILES: COc1cccc([C@@H](C)NC(=O)c2cc3ccc(-c4cn[nH]c4)cc3[nH]2)c1

pIC50 (PIK3CA (human) [4]): 5.82
pIC50 (PIK3CG (human)): 5.13
SMILES: O=C(Nc1ccc(-c2nc(N3CCOCC3)nc(N3CCOCC3)n2)cc1)NC1CCNCC1

pIC50 (PIK3CD (Human) [2]): 7.43
SMILES: O=C(Nc1ccc(CO)cc1)Nc1ccc(-c2nc(N3CCOCC3)c3ncccc3n2)cc1

pKi (PIK3CD (Human) [3]): 8.41
SMILES: Cc1c(-c2ccccc2[S+](C)[O-])nc2cc(F)cc(F)c2c1Nc1cncc(N2CCOCC2)c1 (configuration not stated)

pIC50 (PIK3CD (Human) [5]): 4.70
SMILES: O=C1NC(=O)/C(=C/c2ccc3c(c2)NCCO3)S1

pIC50 (PIK3CD (Human) [2]): 8.40
SMILES: COc1ncc(N2CCc3ncnc(N[C@H]4CCN(C(=O)[C@H]5CC[C@@H](OC)CC5)C4)c3C2)cc1C(F)(F)F

pKi (PIK3CD (Human) [3]): 8.74 and 8.61
SMILES: CC(Nc1ncnc(N)c1C#N)c1nc2ccc(F)cc2c([S+]([O-])CCO)c1-c1ccccc1 (configuration not stated)

pIC50 (PIK3CD (Human) [2]): > 6.60
SMILES: CC(c1oc2ccccc2c(=O)c1-c1cccc(F)c1)n1nc(-c2ccc(O)cc2)c2c(N)ncnc21 (configuration not stated)

pKi (PIK3CG (human)): 6.00
SMILES: COc1ccc(C2=NNC(=O)C2=NNc2cccnc2)cc1

pIC50 (PIK3CD (Human) [3]): 6.00 to 6.30
SMILES: CCc1cccn2c(-c3cccc(F)c3)c(C(C)Nc3ncnc4[nH]cnc34)nc12 (configuration not stated)

pKi (PIK3CD (Human) [3]): 7.09
SMILES: Cc1c(N2CCN(C(=O)N(C)C)CC2)nc2cc(F)cc(F)c2c1Nc1cncc(N2CCOCC2)c1C(=O)N(C)C

pIC50 (PIK3CD (Human) [5]): 4.70
SMILES: O=C1NC(=S)S/C1=C\c1ccc2c(c1)OCO2

pIC50 (PIK3CD (Human) [2]): 6.35
SMILES: Cc1nnc(-c2c(N)ncnc2NC(C)c2nc3cccc(C)n3c(=O)c2-c2ccccc2)o1 (configuration not stated)

pIC50 (PIK3CD (Human) [5]): 7.64
SMILES: C[C@H](Nc1ncnc2[nH]cnc12)c1cc2ccc(F)cc2nc1-c1cccnc1

pIC50 (PIK3CG (human)): 6.67
SMILES: COc1cc2sc(C(=O)Nc3nnn[nH]3)c(SCCc3ccccc3)c2cc1C

SMILES: O=C1NC(=O)C(c2c[nH]c3ccccc23)=C1c1c[nH]c2ccccc12
activity (ROCK2 (human)): 100%

pIC50 (ROCK2 (human)): > 9.00
SMILES: COc1cccc(CN(C)C(=O)Nc2ccc(-c3cn[nH]c3)cc2OCCN2CCCC2)c1

pIC50 (PIK3CD (Human) [5]): 7.57
SMILES: Cc1ccccc1-c1nc2c(C)cccc2cc1COc1ncnc2[nH]cnc12

pIC50 (ROCK2 (human)): > 7.00
SMILES: COCCC(=O)c1ccc(C(=O)Nc2cccc(CN3CCC(Nc4cccc5cnccc45)CC3)c2)cc1

pIC50 (PIK3CA (human) [4]): 6.24
pIC50 (PIK3CG (human)): 5.76
SMILES: O=C(NCCO)Oc1ccc(-c2nc(N3CCOCC3)c3ccn(CC(F)(F)F)c3n2)cc1

pIC50 (PIK3CD (Human) [2]): 8.15
SMILES: Cc1noc(-c2c(N)ncnc2NC(C)c2cc3cccc(Cl)c3nc2-c2ccccn2)n1 (configuration not stated)

pIC50 (ROCK2 (human)): 8.31
SMILES: COc1cc(C(=O)NCc2ccc(Cl)cc2)ccc1-c1cn[nH]c1

pKi (PIK3CA (human) [1]): < 5.00
pKi (PIK3CD (Human) [2]): < 5.00
SMILES: CCNC(=O)Nc1ccc(-c2nc(N3CCOC[C@@H]3CC)c3c(ncn3C)n2)cc1

pKd (PIK3CG (human)): 5.82
SMILES: COC(=O)Nc1nc2ccc(C(=O)c3cccs3)cc2[nH]1

pKi (ROCK2 (human)): 5.40
SMILES: Oc1ccc(-c2nc(-c3ccc(F)cc3)c(-c3ccncc3)[nH]2)cc1
